The values below come from ChEMBL document CHEMBL3046904, “Synthesis, characterization, bioactivity, and POM analyses of isothiochromeno[3,4-e][1,2]oxazines” (2013).

Assay type in all cases: functional
The subject of one experiment is K562. As to the kind of experiment: Cytotoxicity against Homo sapiens (human) K562 after 48 hr by Alamar Blue assay. Particulars: K562, 48 h.
The subject of another experiment is OVCAR-5. As to the kind of experiment: Cytotoxicity against Homo sapiens (human) OVCAR5 after 48 hr by Alamar Blue assay. Particulars: OVCAR-5, 48 h. On the technique in general: Resazurin is reduced to fluorescent resorufin, in cell work by metabolically active cells.
The test system of the next experiment is CAKI-1. As to the kind of experiment: Cytotoxicity against Homo sapiens (human) Caki1 after 48 hr by Alamar Blue assay. The settings on record: CAKI-1, 48 h.
The next experiment deals with HCT-116. Description: Cytotoxicity against Homo sapiens (human) HCT116 after 48 hr by Alamar Blue assay. Particulars: HCT-116, 48 h.
A further experiment relates to LOX IMVI. Description: Cytotoxicity against Homo sapiens (human) LOXIMVI after 48 hr by Alamar Blue assay.
The next experiment relates to SK-MEL-2. Description: Cytotoxicity against Homo sapiens (human) SK-MEL-2 after 48 hr by Alamar Blue assay. Particulars: SK-MEL-2, 48 h.
A further experiment has as its system NCI/ADR-RES. Description: Cytotoxicity against Homo sapiens (human) NCI/ADR-RES after 48 hr by Alamar Blue assay.
A further experiment has as its system HT-29. As to the kind of experiment: Cytotoxicity against Homo sapiens (human) HT-29 after 48 hr by Alamar Blue assay. Particulars: HT-29, 48 h.
The test system of another experiment is ACHN. Description: Cytotoxicity against Homo sapiens (human) ACHN after 48 hr by Alamar Blue assay.
A further experiment deals with KM12. Description: Cytotoxicity against Homo sapiens (human) KM12 after 48 hr by Alamar Blue assay. Particulars: KM12, 48 h.
For another experiment, the system named is SF-268. Description: Cytotoxicity against Homo sapiens (human) SF268 after 48 hr by Alamar Blue assay. The settings on record: SF-268, 48 h.
A further experiment has as its system NCI-H23. As to the kind of experiment: Cytotoxicity against Homo sapiens (human) NCI-H23 after 48 hr by Alamar Blue assay. The settings on record: NCI-H23, 48 h.
Another experiment relates to SW-620. Description: Cytotoxicity against Homo sapiens (human) SW620 after 48 hr by Alamar Blue assay. The settings on record: SW-620, 48 h.

Structures are written as SMILES.

Turning to `Cc1ccc(C2=C3SC=c4ccccc4=C3ON=C2c2ccc(Cl)cc2)cc1`, the GI50 with K562 is 20.6 µM; with OVCAR-5, > 100 µM; in the experiment on CAKI-1, > 100 µM; with HCT-116, 62.7 µM; in the experiment with LOX IMVI, 50 µM; in the experiment on SK-MEL-2, > 100 µM. Further, the GI50 with NCI/ADR-RES is > 100 µM; with HT-29, > 100 µM; with ACHN it was > 100 µM; in the experiment with KM12, > 100 µM; in the experiment on SF-268, 12.1 µM; in the experiment on NCI-H23 it was 16.6 µM. Moreover, the GI50 with SW-620 worked out at 55.6 µM.

With `Cc1ccc(C2=NOC3=c4ccccc4=CSC3=C2c2ccc(C)cc2)cc1`, the GI50 in the experiment on K562 was 22.9 µM; in the experiment with OVCAR-5, > 100 µM; in the experiment with CAKI-1 it was > 100 µM; in the experiment with HCT-116 it was 57.5 µM; in the experiment on LOX IMVI, > 100 µM; with SK-MEL-2, > 100 µM. For the same molecule, the GI50 in the experiment with NCI/ADR-RES, in the experiment with HT-29, with ACHN, with KM12, with SF-268 and in the experiment with NCI-H23 was > 100 µM each time. Besides, the GI50 with SW-620 was > 100 µM.

Broadly, the GI50 is the concentration at which growth is held to half of that of the control.
